Test results from article PMC4237307 (Chembiochem : a European journal of chemical biology, 2014).

Columns and labels:
[1] = system: P. berghei-luciferase sporozoites; assay: Mouse liver stage malaria model, parasite load in livers by in vivo imaging; parameters: species or system C57BL/6 mice
P. berghei = P. berghei parasitemia in mice after prophylactic treatment; type: in vivo; details: single oral dose 100 mg/kg b.w. before infection
[2] = system: liver stage P. berghei ANKA; type: cell-based
PfPK5 = PfPK5 (Plasmodium falciparum, UniProt P61075); type: binding; details: for Percent binding to PfPK5: 10 μM compound
Chain of PfPK5 (P61075 whole entry): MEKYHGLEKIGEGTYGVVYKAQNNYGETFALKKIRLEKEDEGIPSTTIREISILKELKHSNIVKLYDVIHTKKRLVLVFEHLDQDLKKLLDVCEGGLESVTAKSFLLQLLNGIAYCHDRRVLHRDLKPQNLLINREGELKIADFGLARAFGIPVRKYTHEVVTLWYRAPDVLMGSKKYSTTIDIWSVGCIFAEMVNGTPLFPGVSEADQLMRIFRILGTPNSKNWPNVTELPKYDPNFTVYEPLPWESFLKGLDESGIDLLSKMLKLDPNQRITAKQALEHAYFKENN

[3] = mouse, in vivo
liver stage P. berghei = assay: Time course of liver stage parasite inhibition; details: inhibitor added to infected liver cells
[4] = system: blood stage P. falciparum Dd2; assay: Blood stage malaria dose-response assay; type: cell-based; details: read-out: Blood stage malaria IC50
[5] = system: liver and blood stage P. berghei; details: cited from earlier work
mTOR = details: read-out: IC50 mTOR; cited from earlier work

Cc1nc(N)sc1-c1ccnc(Nc2ccc(N3CCOCC3)cc2)n1 [CYC-116]
Parasite load in mouse livers vs vehicle ([1]; single oral dose 100 mg/kg b.w. before infection): significantly reduced parasite load in mouse livers | P. berghei parasitemia vs vehicle (P. berghei): reduction in P. berghei parasitemia | Stage selectivity (blood stage IC50 vs liver stage IC50) [2]: inhibited liver stage P. berghei significantly more potently than blood stage P. falciparum

CN1CC[C@H](c2c(O)cc(O)c3c(=O)cc(-c4ccccc4Cl)oc23)[C@H](O)C1 [Flavopiridol]
Percent binding to PfPK5 (PfPK5): > 50%

CNC(=O)c1cc(Oc2ccc(NC(=O)Nc3ccc(Cl)c(C(F)(F)F)c3)cc2)ccn1 [Nexavar]
Inhibition of parasite load in liver cells ([2]; low micromolar concentration): completely inhibited parasite load in liver cells

Cc1ccc([N+](=O)[O-])cc1S(=O)(=O)N(C)/N=C/c1cnc2ccc(Br)cn12 [PIK-75]
Percent binding to PfPK5 (PfPK5): > 50% | Kd (PfPK5; read-out: Kd for PfPK5, competition binding, absence of ATP): < 10 µM

CC(C)(C)c1cnc(CSc2cnc(NC(=O)C3CCNCC3)s2)o1 [SNS-032]
Parasite load in mouse livers vs vehicle ([1]; single oral dose 75 mg/kg b.w. before infection): reduce parasite load in mouse livers | Toxicity to mice [3]: relatively limited toxicity to mice

CCC(=O)N1CCN(c2ccc(-n3c(=O)ccc4cnc5ccc(-c6cnc7ccccc7c6)cc5c43)cc2C(F)(F)F)CC1 [Torin1]
Parasite inhibition with 12-hour treatment (liver stage P. berghei): inhibit parasites with only a 12-hour treatment

Nc1ccc(-c2ccc3ncc4ccc(=O)n(-c5cccc(C(F)(F)F)c5)c4c3c2)cn1 [Torin2]
IC50 [4]: 1 nM | Activity in mouse animal model [5]: exhibits activity against liver and blood stage P. berghei | IC50 (mTOR): […] | IC50 ([2]; read-out: Liver stage malaria IC50, liver stage): 40 nM

FC(F)c1nc2ccccc2n1-c1nc(N2CCOCC2)nc(N2CCOCC2)n1 [ZSTK474]
Parasite inhibition with 12-hour treatment (liver stage P. berghei): inhibit parasites with only a 12-hour treatment
